Where a SMILES comes first, the peptide text is derived from it.
Columns and labels:
actin cytoskeleton = assay: Labelling actin F (phalloidin), HUVEC cells; type: cell-based, human; settings: 20 μM, 48 h
Protocol: FIG. 22: Effect of YSNSG (SEQ ID NO: 3) cyclopeptide on the organization of the cytoskeleton of HUVEC cells. The cells were cultivated on glass slides in the absence (control) or in the presence of 20 μM of YSNSG (SEQ ID NO: 3) cyclopeptide. After 48 h of incubation, the cells were fixed, permeabilized, incubated with phalloidin (A) or with an anti-Phospho-FAK antibody (B) then with Hoechst-33342. The slides were observed under a confocal microscope;
The cells were seeded onto sterile glass slides placed in a 24-well plate (2×10^4 cells/well) in a suitable medium containing 5% of serum, in the presence or absence of the cyclopeptide YSNSG (SEQ ID NO: 3). After 24 and 48 hours incubation, the cells were fixed with 3.7% formaldehyde for 10 minutes at ambient temperature and permeabilized for 3 minutes with an acetone solution at −20° C. Three 5 minute washes in PBS were carried out, then the cells were incubated for 30 minutes at ambient temperature in a saturation solution (PBS containing 1% bovine serum albumin). The cells were then incubated for 1 hour with phalloidin coupled with Alexa Fluor® 568 (diluted 1/40 in PBS containing 1% BSA) then washed 3 times for 5 minutes with PBS.

HMEC-1 cells = assay: Formation of capillary pseudotubes on Matrigel; type: cell-based, human; settings: 24 hours
Protocol: FIG. 17: In vitro anti-angiogenic activity of cyclopeptide YSNSG (SEQ ID NO: 3). A: microscope photographs of the network of capillary pseudotubes of HMEC-1 endothelial cells after 24 hours incubation in the absence of peptide (control; 1), with the cyclopeptide YSNSG (SEQ ID NO: 3) at a concentration of 10 or 20 μM (2 and 3 respectively) or with the linear heptapeptide CNYYSNS (SEQ ID NO: 5) (20 μM) (positive control; 4). B: quantification of number of pseudotubes in photographs in A;
The in vitro anti-angiogenic activity of the cyclopeptide YSNSG (SEQ ID NO: 3) was measured on the formation of capillary pseudotubes by endothelial HMEC-1 or HUVEC cells deposited on a Matrigel mat.
A solution of Matrigel (ECM gel: 10 mg/ml) was deposited in a sterile manner in 24-well plates (Nunclon) in an amount of 250 μl per well onto piled ice. Gel formation was obtained by incubating the plate at 37° C. for 30 min. HMEC-1 cells or HUVEC cells at sub-confluence were detached from their plastic culture support by adding trypsin/EDTA then taken up into suspension in the culture medium for endothelial cells and diluted to a concentration of 2×10^5 cells per ml. 100 μl volumes of this cell suspension were deposited on the gel surface. […] Quantification was carried out using image analysis software.

NC(=O)CC1NC(=O)C(CO)NC(=O)C(Cc2ccc(O)cc2)NC(=O)CNC(=O)C(CO)NC1=O (stereo not drawn) [cyclopeptide YSNSG, cyclopeptide YSNSG (SEQ ID NO: 3)] (cyclo(GYSNS); configuration not given here)
organization of the actin cytoskeleton (actin cytoskeleton): modification
reduces the formation of pseudotubes (HMEC-1 cells; 10 μM): 40%
reduces the formation of pseudotubes (HMEC-1 cells; 20 μM): up to 70%
